Values of other authors in publication PMC10353187, “Discovery of a new potent oxindole multi-kinase inhibitor among a series of designed 3-alkenyl-oxindoles with ancillary carbonic anhydrase inhibitory activity as antiproliferative agents” (BMC Chemistry, 2023).
Read-outs that look alike come from different tables or passages of the source.

Tests used:
[1] = system: PDGFR β; details: Fig. 2, reported multi-kinase inhibitors; read-out: PDGFB IC50; cited from earlier work
[2] = system: VEGFRI; details: Fig. 2, reported multi-kinase inhibitors; read-out: VEGFI IC50; cited from earlier work
[3] = system: VEGFRII; details: Fig. 2, reported multi-kinase inhibitors; read-out: VEGFII IC50; cited from earlier work
[4] = system: VEGF; details: Fig. 2, reported multi-kinase inhibitors; cited from earlier work
[5] = cited from earlier work
[6] = system: PDGF; details: Fig. 2, reported multi-kinase inhibitors; cited from earlier work
[7] = target: hCA II (Homo sapiens, UniProt P00918); design: made in house; method as in PMID 15499993, PMID 12678681, PMID 31313595, PMID 26745009; details: reported CAIs, Fig. 1; cited from earlier work

CNC(=O)c1cc(Oc2ccc(NC(=O)Nc3ccc(Cl)c(C(F)(F)F)c3)c(F)c2)ccn1 [Regorafenib]
IC50 [1]: 0.022 µM
IC50 [2]: 0.013 µM
IC50 [3]: 0.042 µM

CCN(CC)CCNC(=O)c1c(C)[nH]c(/C=C2\C(=O)Nc3ccc(F)cc32)c1C [Sunitinib]
IC50 [4]: 0.08 µM
IC50 ([5]; Fig. 2, read-out: cytotoxicity average IC50): 8.11 µM
IC50 [6]: 0.002 µM

COc1ccc(C2=NN(c3nc4ccccc4s3)C(c3cc(OC)c(OC)c(OC)c3)C2)cc1 (stereo not drawn) [VIII]
Ki [7]: 22.7 µM
Tumor selectivity (TS) ([5]; Fig. 1): 29.3
IC50 ([5]; Fig. 1, read-out: Cytotoxicity average IC50): 18.7 µM
